IC50 and EC50 data for 13 compounds are collected here from patent publication US20210315869A1, “COMPOUNDS AND METHODS FOR CSK MODULATION AND INDICATIONS THEREFOR” (Plexxikon Inc., priority 2020, published 2021).

For one experiment, the target named is T1, CSK (Homo sapiens, UniProt P41240).
T1 construct: purchased Thermo Fisher
The experiment is described as follows: Human CSK enzymatic assay (AlphaScreen, Poly (Glu4-Tyr) substrate). In kind it is biochemical. Particulars: 100 uM ATP; read-out: CSK IC50 (μM) COFACTOR: 100 uM ATP. As to the method: This assay measures the ability of CSK to phosphorylate a biotinylated peptide containing multiple tyrosine residues in vitro. The CSK enzyme was purchased from Thermo Fisher. The biotinylated Poly (Glu4-Tyr) peptide substrate was purchased from Sigma-Aldrich. The CSK enzyme assay was performed using 0.75 ng CSK enzyme and 30 nM Poly (Glu4-Tyr) substrate in the presence of 25 mM Hepes pH 7.5, 5 mM Mg Acetate, 0.1% NP-40, 1 mM DTT, 0.01% BSA, and 100 μM ATP. A 19 μL volume of the above reaction mixture was added to wells of 384-well AlphaPlate (PerkinElmer GA, USA) containing 1 μL of various concentrations of test compound or DMSO vehicle and incubated for 60 minutes at room temperature. 16 wells containing all the components of reaction mixture and 5% DMSO serve as high control. 16 wells containing all the components except ATP of reaction mixture and 5% DMSO served as low control. The enzymatic reaction was stopped by the addition of 5 μL stop/detection mixture containing 25 mM Hepes pH 7.5 100 mM EDTA, and 5 μg/mL streptavidin-coated AlphaScreen donor beads (PerkinElmer GA, USA) and incubated for 20 minutes. A 5 μL mixture containing 25 mM Hepes pH 7.5, 100 mM EDTA, and 5 μg/mL anti-phosphotyrosine antibody PY20-coated AlphaScreen acceptor beads (PerkinElmer GA, USA) was added and the plate was incubated for 1 hour at room temperature. The streptavidin donor beads bind to the biotin moiety on the biotinylated Poly (Glu4-Tyr) substrate and the PY20 antibody-coated acceptor beads bind to tyrosine residues on the substrate that have been directly phosphorylated by CSK. Upon excitation of these beads with laser light at 680 nm, singlet oxygen was produced. This singlet oxygen was rapidly quenched, unless the AlphaScreen PY20 acceptor beads are in close proximity, in which case a proximity signal can be measured at 580 nm. In the presence of catalytic activity, there was a very strong proximity signal. Selective CSK inhibitors affect a decrease in this proximity signal through a decrease in phosphorylation of the Poly (Glu4-Tyr) substrate. The percentage of inhibition at individual concentrations relative to high and low controls was calculated. The data were analyzed by using nonlinear regression to generate IC50 values. Human LCK enzymatic assay

The next experiment concerns Jurkat/NFAT-RE cells. Description: NFAT reporter assay (luciferase) in Jurkat/NFAT-RE cells. The experiment is classed as cell-based. The note with it: Homo sapiens, 0.02 μg/mL anti-CD3 antibody OKT3, 3 hours, read-out: Jurkat EC50 (uM) Cell Assay: Reporter Cell Variant: NFAT response element. An excerpt: To assess the ability of CSK inhibitors to activate LCK and stimulate signaling downstream of the T-cell receptor, an NFAT reporter assay was used for monitoring of LCK activation in cells through the activation of LCK-dependent signaling through a reporter assay. The Jurkat T-cell cell line was genetically engineered to express a luciferase reporter that is regulated by the NFAT-response element. (Clipstone, N. A., & Crabtree, G. R., Identification of calcineurin as a key signalling enzyme in T-lymphocyte activation, Nature, 357(6380), 695-697, 1992). Stimulation of the T-cell receptor with anti-CD3 antibody increases the expression of the luciferase reporter. To test the ability of CSK inhibitors to stimulate LCK and downstream T-cell signaling, the cells were stimulated with a suboptimal concentration of anti-CD3 ligand, to measure the ability of CSK inhibitors to increase luciferase expression.
This assay measures the signaling activity downstream of the T-cell receptor, specifically the ability of the NFAT transcription factor to be translocated to the nucleus and induce expression of a firefly luciferase gene. Jurkat/NFAT-RE cells stably expressing the NFAT reporter construct were purchased from BPS Bioscience. The assay was performed by plating 40,000 Jurkat/NFAT-RE cells in a 50 μL volume of serum-free growth media in a 96-well plate. Following an overnight incubation, the cells were treated with CSK inhibitors and 0.02 μg/mL anti-CD3 antibody OKT3 (BD Bioscience) for 3 hours at 37° C. High control wells were stimulated with DMSO and 5 μg/mL OKT3 to maximally stimulate the NFAT reporter, and low control wells were stimulated with DMSO and 0.02 μg/mL OKT3. Following the 3 hour incubation, the cells were assayed for viability using CellTiter-Fluor™ (Promega), and for luciferase expression using ONE-Glo™ (Promega). The ONE-Glo™ signal was normalized to the CellTiter-Fluor™ signal, and the percentage of NFAT activation relative to high and low controls was calculated. The data were analyzed by using nonlinear regression to generate EC50 values. Selective CSK inhibitors affect an increase in luciferase expression in the presence of low level stimulation of the T-cell receptor.

The next experiment addresses T2, LCK (Homo sapiens, UniProt P06239).
T2 construct: purchased ProQinase
Description: Human LCK enzymatic assay (AlphaScreen, Poly (Glu4-Tyr) substrate). The experiment is classed as biochemical. The note with it: 100 uM ATP; read-out: LCK IC50 (uM) COFACTOR: 100 uM ATP. As for the experimental part: This assay measures the ability of LCK to phosphorylate a biotinylated peptide containing multiple tyrosine residues in vitro. The LCK enzyme was purchased from ProQinase. The biotinylated Poly (Glu4-Tyr) peptide substrate was purchased from Sigma-Aldrich. The LCK enzyme assay was performed using 1 ng LCK enzyme and 30 nM Poly (Glu4-Tyr) substrate in the presence of 25 mM Hepes pH 7.5, 10 mM MnCl2, 50 mM NaCl, 0.01% Tween-20, 0.5 mM DTT, 0.01% BSA, and 100 μM ATP. A 19 μL volume of the above reaction mixture was added to wells of 384-well AlphaPlate (PerkinElmer GA, USA) containing 1 μL of various concentrations of test compound or DMSO vehicle and incubated for 40 minutes at 25° C. 16 wells containing all the components of reaction mixture and 5% DMSO served as high control. 16 wells containing all the components except ATP of reaction mixture and 5% DMSO served as low control. The enzymatic reaction was stopped by the addition of 5 μL stop/detection mixture containing 25 mM Hepes pH 7.5 100 mM EDTA, and 10 μg/mL streptavidin-coated AlphaScreen donor beads (PerkinElmer GA, USA) and incubated for 20 minutes. A 5 μL mixture containing 25 mM Hepes pH 7.5, 100 mM EDTA, and 10 μg/mL anti-phosphotyrosine antibody PY20-coated AlphaScreen acceptor beads (PerkinElmer GA, USA) was added and the plate was incubated for 1 hour at room temperature. The streptavidin donor beads bind to the biotin moiety on the biotinylated Poly (Glu4-Tyr) substrate and the PY20 antibody-coated acceptor beads bind to tyrosine residues on the substrate that have been directly phosphorylated by LCK. Upon excitation of these beads with laser light at 680 nm, singlet oxygen was produced. This singlet oxygen was rapidly quenched, unless the AlphaScreen PY20 acceptor beads are in close proximity, in which case a proximity signal can be measured at 580 nm. In the presence of catalytic activity, there was a very strong proximity signal. Selective LCK inhibitors affect a decrease in this proximity signal through a decrease in phosphorylation of the Poly (Glu4-Tyr) substrate. The percentage of inhibition at individual concentrations relative to high and low controls was calculated. The data were analyzed by using nonlinear regression to generate IC50 values.

T1 sequence (P41240 whole entry): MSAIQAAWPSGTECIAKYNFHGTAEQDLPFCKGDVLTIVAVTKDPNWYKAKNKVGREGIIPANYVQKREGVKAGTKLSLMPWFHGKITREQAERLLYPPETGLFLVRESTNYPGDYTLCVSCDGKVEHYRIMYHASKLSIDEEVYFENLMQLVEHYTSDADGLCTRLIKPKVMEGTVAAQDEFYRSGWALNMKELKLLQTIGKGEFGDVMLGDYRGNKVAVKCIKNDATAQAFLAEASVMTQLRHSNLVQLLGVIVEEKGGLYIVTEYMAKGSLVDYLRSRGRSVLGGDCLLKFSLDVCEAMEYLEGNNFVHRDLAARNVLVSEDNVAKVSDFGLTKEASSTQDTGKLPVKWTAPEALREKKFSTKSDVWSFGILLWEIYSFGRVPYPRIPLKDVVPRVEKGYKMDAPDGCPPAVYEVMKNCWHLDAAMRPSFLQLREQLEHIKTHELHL
T2 sequence (P06239 whole entry): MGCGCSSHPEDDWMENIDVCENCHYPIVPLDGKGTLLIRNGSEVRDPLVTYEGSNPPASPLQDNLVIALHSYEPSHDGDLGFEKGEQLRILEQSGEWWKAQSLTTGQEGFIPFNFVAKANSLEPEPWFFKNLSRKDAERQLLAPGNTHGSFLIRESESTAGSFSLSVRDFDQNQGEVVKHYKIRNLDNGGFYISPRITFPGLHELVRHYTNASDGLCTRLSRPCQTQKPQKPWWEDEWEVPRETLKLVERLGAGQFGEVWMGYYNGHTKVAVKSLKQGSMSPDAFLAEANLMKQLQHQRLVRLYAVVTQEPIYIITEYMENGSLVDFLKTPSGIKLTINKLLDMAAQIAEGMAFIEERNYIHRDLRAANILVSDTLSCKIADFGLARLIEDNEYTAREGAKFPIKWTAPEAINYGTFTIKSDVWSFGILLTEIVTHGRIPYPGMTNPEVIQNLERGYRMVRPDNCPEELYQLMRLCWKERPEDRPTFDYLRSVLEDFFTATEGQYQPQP

Consider `Nc1cc2c(cn1)cc(-c1c(F)ccc(NS(=O)(=O)c3ccc4ncsc4c3F)c1F)c(=O)n2C1CC1` [P-0027, N-(3-(7-amino-1-cyclopropyl-2-oxo-1,2-dihydro-1,6-naphthyridin-3-yl)-2,4-difluorophenyl)-7-fluorobenzo[d]thiazole-6-sulfonamide], for which the IC50 at CSK was 0.001 to 0.5 µM. The concentration giving a half-maximal response (EC50) in the experiment on Jurkat/NFAT-RE cells was in the range of 0.001 to 0.5 µM.
Consider `Nc1cc2c(cn1)cc(-c1c(F)ccc(NS(=O)(=O)c3cc4scnc4cc3F)c1F)c(=O)n2CC(F)F` [P-0003, N-(3-(7-amino-1-(2,2-difluoroethyl)-2-oxo-1,2-dihydro-1,6-naphthyridin-3-yl)-2,4-difluorophenyl)-5-fluorobenzo[d]thiazole-6-sulfonamide], for which the IC50 was in the range of 0.001 to 0.5 µM at CSK and 5 to 100 µM at LCK. For the same compound, in the experiment on Jurkat/NFAT-RE cells, the EC50 lay within 0.001 to 0.5 µM.
For `Nc1cc2c(cn1)cc(-c1c(F)ccc(NS(=O)(=O)c3cc4scnc4cc3F)c1F)c(=O)n2CC1CC(F)(F)C1` [P-0018, N-(3-(7-amino-1-((3,3-difluorocyclobutyl)methyl)-2-oxo-1,2-dihydro-1,6-naphthyridin-3-yl)-2,4-difluorophenyl)-5-fluorobenzo[d]thiazole-6-sulfonamide], the IC50 fell in the range of 0.001 to 0.5 µM on CSK and 5 to 100 µM on LCK. Moreover, the EC50 in the experiment on Jurkat/NFAT-RE cells fell in the range of 0.001 to 0.5 µM.
On to `Nc1cc2c(cn1)cc(-c1c(F)ccc(NS(=O)(=O)c3ccc4ncsc4c3F)c1F)c(=O)n2CC(F)(F)F` [P-0022, N-(3-(7-amino-2-oxo-1-(2,2,2-trifluoroethyl)-1,2-dihydro-1,6-naphthyridin-3-yl)-2,4-difluorophenyl)-7-fluorobenzo[d]thiazole-6-sulfonamide], for which the IC50 at CSK fell in the range of 0.001 to 0.5 µM; at LCK it was 0.5 to 5 µM. Also, in the experiment on Jurkat/NFAT-RE cells, the EC50 is 0.001 to 0.5 µM.
Take `Nc1cc2[nH]c(=O)c(-c3c(F)ccc(NS(=O)(=O)c4cc5scnc5cc4F)c3F)cc2cn1` [P-0007, N-(3-(7-amino-2-oxo-1,2-dihydro-1,6-naphthyridin-3-yl)-2,4-difluorophenyl)-5-fluorobenzo[d]thiazole-6-sulfonamide]: the IC50 lay within 0.001 to 0.5 µM at CSK and 5 to 100 µM on LCK. In the experiment on Jurkat/NFAT-RE cells, the EC50 was in the range of 0.5 to 5 µM.
On the same counts, the results for `Nc1cc2c(cn1)cc(-c1c(F)ccc(NS(=O)(=O)c3ccc4ncsc4c3)c1F)c(=O)n2CC(F)F` [P-0023, N-(3-(7-amino-1-(2,2-difluoroethyl)-2-oxo-1,2-dihydro-1,6-naphthyridin-3-yl)-2,4-difluorophenyl)benzo[d]thiazole-6-sulfonamide] are 0.001 to 0.5 µM, 0.5 to 5 µM and 0.001 to 0.5 µM.
On the same counts, the results for `O=c1c(-c2c(F)ccc(NS(=O)(=O)c3cc4scnc4cc3F)c2F)cc2cnc(NCCO)cc2n1CC1CC1` [P-0010, N-(3-(1-(cyclopropylmethyl)-7-((2-hydroxyethyl)amino)-2-oxo-1,2-dihydro-1,6-naphthyridin-3-yl)-2,4-difluorophenyl)-5-fluorobenzo[d]thiazole-6-sulfonamide] are 0.001 to 0.5 µM, 5 to 100 µM and 0.5 to 5 µM.
As for `O=c1c(-c2c(F)ccc(NS(=O)(=O)c3cc4scnc4cc3F)c2F)cc2cnccc2n1CC1CC1` [P-0025, N-(3-(1-(cyclopropylmethyl)-2-oxo-1,2-dihydro-1,6-naphthyridin-3-yl)-2,4-difluorophenyl)-5-fluorobenzo[d]thiazole-6-sulfonamide], the IC50 on CSK lay in the range of 0.5 to 5 µM; on LCK, 5 to 100 µM. In addition, the EC50 with Jurkat/NFAT-RE cells fell in the range of 5 to 100 µM.
As for `Nc1cc2c(cn1)cc(-c1c(F)ccc(NS(=O)(=O)c3ccc4ncsc4c3F)c1F)c(=O)n2CC1CC1` [P-0001, N-(3-(7-amino-1-(cyclopropylmethyl)-2-oxo-1,2-dihydro-1,6-naphthyridin-3-yl)-2,4-difluorophenyl)-7-fluorobenzo[d]thiazole-6-sulfonamide], the IC50 on CSK and on LCK was 0.001 to 0.5 µM throughout. Besides, the EC50 in the experiment on Jurkat/NFAT-RE cells is 0.001 to 0.5 µM.
In the case of `Nc1cc2c(cn1)cc(-c1c(F)ccc(NS(=O)(=O)c3ccc4ncsc4c3)c1F)c(=O)n2C1CC1` [P-0026, N-(3-(7-amino-1-cyclopropyl-2-oxo-1,2-dihydro-1,6-naphthyridin-3-yl)-2,4-difluorophenyl)benzo[d]thiazole-6-sulfonamide], the results for the IC50 at CSK and at LCK were 0.001 to 0.5 µM and 5 to 100 µM, respectively. In addition, the EC50 with Jurkat/NFAT-RE cells was 0.5 to 5 µM.
On the same counts, the results for `Nc1cc2c(cn1)cc(-c1c(F)ccc(NS(=O)(=O)c3ccc4ncsc4c3F)c1F)c(=O)n2CC(F)F` [P-0019, N-(3-(7-amino-1-(2,2-difluoroethyl)-2-oxo-1,2-dihydro-1,6-naphthyridin-3-yl)-2,4-difluorophenyl)-7-fluorobenzo[d]thiazole-6-sulfonamide] are 0.001 to 0.5 µM, 0.5 to 5 µM and 0.001 to 0.5 µM.
For `Cc1c(-c2cccc(NS(=O)(=O)c3cc4scnc4cc3F)c2F)c(=O)n(C2CC2)c2cc(N)ncc12` [P-0028, N-(3-(7-amino-1-cyclopropyl-4-methyl-2-oxo-1,2-dihydro-1,6-naphthyridin-3-yl)-2-fluorophenyl)-5-fluorobenzo[d]thiazole-6-sulfonamide], the IC50 at CSK and at LCK was 5 to 100 µM throughout.
For `Nc1cc2c(cn1)cc(-c1cccc(NS(=O)(=O)c3cc4scnc4cc3F)c1F)c(=O)n2C1CC1` [P-0029, N-(3-(7-amino-1-cyclopropyl-2-oxo-1,2-dihydro-1,6-naphthyridin-3-yl)-2-fluorophenyl)-5-fluorobenzo[d]thiazole-6-sulfonamide], the IC50 at CSK is 0.001 to 0.5 µM; on LCK, 5 to 100 µM.
